Settings in one data set: not given
For `CC1CCCC2(C)CCCCC12O` (stereo unspecified), the boiling point (commonly the temperature of boiling at a given pressure) came to 270 °C.

On to `O[C@@H]1C[C@H]2CC[C@@H]1C2`, for which the boiling point came out at 176 °C and the melting point – broadly, the temperature, or range, at which the solid turns liquid – was 133 °C.

`Cc1cccc(C#N)c1` came in with a boiling point of 213 °C and a melting point of -23 °C.

With `CCOC(=O)C(Cl)C(=O)OCC`, the boiling point stood at 222 °C.

Take `Clc1ccc(Cl)c(-c2cc(Cl)c(Cl)c(Cl)c2)c1`: the melting point came out at 105 °C.

In the case of `CC(N)CC(=O)O` (stereo unspecified), the melting point amounted to 193 °C.

The compound `Clc1ccc(-c2c(Cl)ccc(Cl)c2Cl)cc1Cl` showed a log10 Koa of 9.06.

`C=C(C)C=CC(=C)C` showed a boiling point of 146 °C and a melting point of -9 °C.

Consider `c1ccc2c(c1)ccc1cc3c(ccc4ccccc43)cc12`, for which the boiling point amounted to 524 °C, the log10 Koc (L/kg) was determined as 6.22, the log10 biodegradation half-life (days) came out at 2.62 and the log10 vapour pressure (mmHg) is -9.02. The melting point came out at 270 °C and the ready biodegradability result is given as “not readily biodegradable”.

For the compound `Nc1ccccc1N`, the boiling point is 257 °C, the log10 vapour pressure (mmHg) is -2.69, the melting point turned out to be 102 °C and the ready biodegradability entry was “not readily biodegradable”.

On to `CC(C)(Cl)C(=O)O`, for which the melting point amounted to 31 °C.

Turning to `CCOc1cc(Oc2ccc(C(F)(F)F)cc2Cl)ccc1[N+](=O)[O-]`, the boiling point was 358 °C, the log10 Koc (L/kg) is 5, the log10 vapour pressure (mmHg) is -6.7 and the melting point is 84 °C.

As to `O=C([O-])c1ccccc1.[NH4+]`, the melting point stood at 194 °C.

Turning to `Clc1c(Cl)c(Cl)c2c(c1Cl)Oc1ccccc1O2`, the log10 Henry constant (atm·m³/mol) was -4.7, the log10 Koa amounted to 9.7, the log10 vapour pressure (mmHg) is -7.32 and the melting point was found to be 188 °C.

As for `Cc1ccc(N=Cc2ccccc2)cc1`, the boiling point worked out at 318 °C and the melting point worked out at 35 °C.

Regarding `FC(F)(F)COCC(F)(F)F`, the boiling point was 63.9 °C and the log10 vapour pressure (mmHg) turned out to be 2.19.

`CC(C)(C)C(=O)OCC(=O)[C@@]1(O)CC[C@H]2[C@@H]3CCC4=CC(=O)C=C[C@]4(C)[C@H]3[C@@H](O)C[C@@]21C` returned a melting point of 233 °C.

`CC1(C)CC(O)CC(C)(C)N1`: the ready biodegradability result is given as “not readily biodegradable”.

As to `C=Cc1ccccc1`, the boiling point is 145 °C, the log10 Henry constant (atm·m³/mol) was -2.56, the log10 Koc (L/kg) was determined as 2.96 and the log10 vapour pressure (mmHg) came out at 0.806. Further, the melting point is -31 °C and the ready biodegradability entry was “readily biodegradable”.

Consider `OCCc1ccc(Cl)cc1`, for which the boiling point turned out to be 259 °C.

On to `FC(F)(F)C(F)(F)C(F)(F)C(F)(F)C(F)(F)C(F)(F)C(F)(F)C(F)(F)F`, for which the boiling point stood at 106 °C and the melting point is -42 °C.

`CCCCON=O`: the boiling point turned out to be 78 °C.

In the case of `CC[C@@](C)(O)C(=O)O`, the melting point was found to be 74 °C.

Turning to `CCOCCCO`, the melting point turned out to be 160 °C.

In the case of `CCCCOc1ccccc1OCCCC`, the ready biodegradability entry was “not readily biodegradable”.

The compound `CC(=O)Nc1ccc(OC(=O)c2ccccc2OC(C)=O)cc1` showed a melting point of 175 °C.

With `Cc1ccc2c(ccc3ccccc32)c1`, the log10 biodegradation half-life (days) stood at 1.36 and the melting point came to 58 °C.

In the case of `N#Cc1cc([N+](=O)[O-])ccc1N`, the ready biodegradability result is “not readily biodegradable”.

`CN=Cc1ccccc1` had a boiling point of 185 °C.

On to `Cc1ccc([N+](=O)[O-])cc1C`, for which the boiling point worked out at 251 °C, the log10 vapour pressure (mmHg) was -2.44 and the melting point turned out to be 30.5 °C.

The compound `OC1CCC(Cl)CC1` (stereo unspecified) came in with a melting point of 82.5 °C.

For the compound `COC(=O)c1ccc(Br)cc1`, the melting point came out at 81 °C.

For `C=Cc1cccc([N+](=O)[O-])c1`, the melting point is -10 °C and the ready biodegradability result was “not readily biodegradable”.

Compound `COc1cccc(Cl)c1` gave a boiling point of 194 °C.

Consider `O=Cc1ccc[nH]1`, for which the boiling point was determined as 218 °C and the melting point turned out to be 46.5 °C.

In the case of `CCOC(=O)c1ccc(NC(=O)CCl)cc1`, the ready biodegradability entry is given as “readily biodegradable”.

`CC(Cl)(Cl)C(=O)[O][Na]` gave a log10 Koc (L/kg) of 0.

`COc1c(OC)c2occc2c2oc(=O)ccc12` had a melting point of 119 °C.

For the compound `C[C@@H]1C[C@H]2[C@@H]3C[C@H](F)C4=CC(=O)C=C[C@]4(C)[C@H]3[C@@H](O)C[C@]2(C)[C@H]1C(=O)CO`, the melting point worked out at 188 °C.

As for `COc1ccc(N(CCCC(=O)O)C(=O)c2ccc(Cl)cc2)cc1`, the melting point came to 116 °C.

The compound `O=C(Cl)c1cccc(C(F)(F)F)c1` returned a boiling point of 187 °C.

For the compound `CC(O)CBr` (stereo unspecified), the boiling point was 146 °C.

As to `COc1cc(/C=C/C(=O)CC(=O)/C=C/c2ccc(O)c(OC)c2)ccc1O`, the melting point was 183 °C.

As to `Cc1ccc(S)cc1`, the boiling point was determined as 195 °C, the log10 vapour pressure (mmHg) was -0.191 and the melting point was found to be 43 °C.

Regarding `C=CCc1ccc2c(c1)OCO2`, the boiling point was found to be 234 °C, the log10 Koc (L/kg) turned out to be 2.83 and the melting point turned out to be 11.2 °C.

Still in this data set, the particulars now being: fish.
In turn, `Clc1ccc(-c2c(Cl)ccc(Cl)c2Cl)cc1Cl` registered a log10 biotransformation half-life (days) of 2.63.

Turning to `c1ccc2c(c1)ccc1cc3c(ccc4ccccc43)cc12`, the log10 biotransformation half-life (days) amounted to 0.21.

`Clc1c(Cl)c(Cl)c2c(c1Cl)Oc1ccccc1O2` yielded a log10 BCF of 3.46 and a log10 biotransformation half-life (days) of 1.02.

In the case of `C=Cc1ccccc1`, the log10 BCF amounted to 1.13.

`Cc1ccc2c(ccc3ccccc32)c1`: the log10 BCF was 3.48.

On to `CC(Cl)(Cl)C(=O)[O][Na]`, for which the log10 BCF was found to be 0.86.
